Results taken from PubChem BioAssay (NCI).
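How tested: cells in 96-well plates exposed to compound for 48 hours at five concentrations. The concentration for full growth arrest is given as TGI.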 *1 amine or outer side, *2 acyl side, *3 side chain or, on linkers, in order; H or OH if unused. Where a SMILES comes first, the peptide text is derived from it. [ ]: non-standard residue; d: D form. ξ: configuration not given here. Ile(3ξ) = CCC(C)[C@H](N)C(=O)O; X33 = C=CCC(O[*:1])C(=O)[*:2]; NMeV = CN[C@H](C(=O)O)C(C)C; NMeA = CN[C@@H](C)C(=O)O; βAla = NCCC(=O)O

What was measured:
Test in all cases: NCI-60 cell line screen, 48 h
[1] = test system: DMS 114 small cell lung
[2] = test system: UO-31 renal
[3] = test system: NCI-H226 lung
[4] = test system: SNB-75 CNS
[5] = test system: OVCAR-4 ovarian
[6] = test system: HT29 colon
[7] = test system: HCT-116 colon
[8] = test system: SF-539 CNS
[9] = test system: HL-60(TB) leukemia
[10] = test system: SN12C renal
[11] = test system: UACC-257 melanoma
[12] = test system: SNB-19 CNS
[13] = test system: SK-MEL-5 melanoma
[14] = test system: IGROV1 ovarian
[15] = test system: HCT-15 colon
[16] = test system: NCI-H460 lung
[17] = test system: SW-620 colon
[18] = test system: HCC-2998 colon
[19] = test system: SR leukemia
[20] = test system: CAKI-1 renal
[21] = test system: MOLT-4 leukemia
[22] = test system: A549 NSCLC
[23] = test system: SK-OV-3 ovarian
[24] = test system: CCRF-CEM leukemia
[25] = test system: A498 renal
[26] = test system: 786-0 renal
[27] = test system: KM12 colon
[28] = test system: LOX IMVI melanoma
[29] = test system: NCI-H23 lung
[30] = test system: OVCAR-8 ovarian
[31] = test system: EKVX NSCLC
[32] = test system: HOP-62 NSCLC
[33] = test system: DLD-1 colon
[34] = test system: SK-MEL-2 melanoma
[35] = test system: SF-268 CNS
[36] = test system: MALME-3M melanoma
[37] = test system: OVCAR-5 ovarian
[38] = test system: OVCAR-3 ovarian
[39] = test system: M19-MEL melanoma
[40] = test system: RXF-631 renal
[41] = test system: HOP-92 NSCLC
[42] = test system: SNB-78 CNS
[43] = test system: M14 melanoma
[44] = test system: KM20L2 colon
[45] = test system: RPMI-8226 leukemia
[46] = test system: RXF 393 renal
[47] = test system: COLO 205 colon
[48] = test system: U251 CNS
[49] = test system: XF 498 CNS
[50] = test system: UACC-62 melanoma
[51] = test system: TK-10 renal
[52] = test system: SK-MEL-28 melanoma
[53] = test system: SF-295 CNS
[54] = test system: K-562 leukemia
[55] = test system: ACHN renal
[56] = test system: LXFL 529 NSCLC
[57] = test system: DMS 273 small cell lung

Question: Which TGI [1] does the source give for `C=CCC1OC(=O)CCNC(=O)[C@H](C)N(C)C(=O)[C@H](C(C)C)N(C)C(=O)[C@H](C(C)CC)NC(=O)[C@@H]2CCCN2C1=O` (some centres not stated) (cyclo([Ile(3ξ)][NMeV][NMeA][βAla][X33]P)) here?
Answer: Its TGI is greater than 100 µM.

Question: What about the TGI [2] of the same compound?
Answer: The TGI was 99.6 µM.

Question: What about the TGI [3] of the same compound?
Answer: The TGI was 29.2 µM.

Question: And the TGI [4]?
Answer: Its TGI is greater than 90.5 µM.

Question: And the TGI [5]?
Answer: Its TGI is greater than 100 µM.

Question: What about the TGI [6] of the same compound?
Answer: The TGI was greater than 100 µM.

Question: And the TGI [7]?
Answer: Its TGI is greater than 100 µM.

Question: And the TGI [8]?
Answer: The TGI was greater than 79.4 µM.

Question: What about the TGI [9] of the same compound?
Answer: Its TGI is greater than 100 µM.

Question: What about the TGI [10] of the same compound?
Answer: The TGI was greater than 100 µM.

Question: And the TGI [11]?
Answer: The TGI was 36.3 µM.

Question: What about the TGI [12] of the same compound?
Answer: The TGI was greater than 100 µM.

Question: And the TGI [13]?
Answer: The TGI was 10.4 µM.

Question: And the TGI [14]?
Answer: The TGI was greater than 100 µM.

Question: What about the TGI [15] of the same compound?
Answer: Its TGI is greater than 100 µM.

Question: What about the TGI [16] of the same compound?
Answer: The TGI was greater than 100 µM.

Question: And the TGI [17]?
Answer: Its TGI is greater than 100 µM.

Question: And the TGI [18]?
Answer: The TGI was 27.7 µM.

Question: What about the TGI [19] of the same compound?
Answer: Its TGI is greater than 100 µM.

Question: And the TGI [20]?
Answer: Its TGI is greater than 78.6 µM.

Question: What about the TGI [21] of the same compound?
Answer: Its TGI is greater than 100 µM.

Question: And the TGI [22]?
Answer: The TGI was greater than 100 µM.

Question: And the TGI [23]?
Answer: Its TGI is greater than 100 µM.

Question: What about the TGI [24] of the same compound?
Answer: Its TGI is greater than 100 µM.

Question: And the TGI [25]?
Answer: The TGI was greater than 100 µM.

Question: What about the TGI [26] of the same compound?
Answer: Its TGI is greater than 100 µM.

Question: And the TGI [27]?
Answer: The TGI was greater than 100 µM.

Question: What about the TGI [28] of the same compound?
Answer: The TGI was greater than 31.7 µM.

Question: What about the TGI [29] of the same compound?
Answer: The TGI was greater than 100 µM.

Question: What about the TGI [30] of the same compound?
Answer: The TGI was greater than 100 µM.

Question: And the TGI [31]?
Answer: Its TGI is greater than 100 µM.

Question: And the TGI [32]?
Answer: Its TGI is greater than 21 µM.

Question: And the TGI [33]?
Answer: The TGI was greater than 100 µM.

Question: What about the TGI [34] of the same compound?
Answer: Its TGI is 12.6 µM.

Question: And the TGI [35]?
Answer: The TGI was 58.4 µM.

Question: What about the TGI [36] of the same compound?
Answer: Its TGI is 16.5 µM.

Question: What about the TGI [37] of the same compound?
Answer: The TGI was greater than 100 µM.

Question: What about the TGI [38] of the same compound?
Answer: The TGI was greater than 100 µM.

Question: What about the TGI [39] of the same compound?
Answer: The TGI was greater than 67.6 µM.

Question: And the TGI [40]?
Answer: The TGI was greater than 100 µM.

Question: What about the TGI [41] of the same compound?
Answer: Its TGI is greater than 30.9 µM.

Question: What about the TGI [42] of the same compound?
Answer: The TGI was greater than 100 µM.

Question: And the TGI [43]?
Answer: The TGI was 7.87 µM.

Question: And the TGI [44]?
Answer: Its TGI is greater than 52 µM.

Question: And the TGI [45]?
Answer: The TGI was greater than 100 µM.

Question: What about the TGI [46] of the same compound?
Answer: The TGI was greater than 100 µM.

Question: What about the TGI [47] of the same compound?
Answer: The TGI was greater than 100 µM.

Question: And the TGI [48]?
Answer: Its TGI is greater than 100 µM.

Question: And the TGI [49]?
Answer: The TGI was 41.8 µM.

Question: What about the TGI [50] of the same compound?
Answer: The TGI was greater than 46.2 µM.

Question: And the TGI [51]?
Answer: The TGI was greater than 100 µM.

Question: What about the TGI [52] of the same compound?
Answer: Its TGI is greater than 100 µM.

Question: And the TGI [53]?
Answer: Its TGI is greater than 100 µM.

Question: What about the TGI [54] of the same compound?
Answer: Its TGI is greater than 71.6 µM.

Question: What about the TGI [55] of the same compound?
Answer: Its TGI is greater than 100 µM.

Question: What about the TGI [56] of the same compound?
Answer: Its TGI is greater than 100 µM.

Question: What about the TGI [57] of the same compound?
Answer: The TGI was 28.9 µM.
